The target of the experiment is 5-HT2A receptors (Rattus norvegicus, UniProt P14842). Briefly: in-vitro affinity to 5-HT2A receptors, displacement of [3H]ketanserine (Example A1). The class given is binding. The source says: The 5-HT2A receptors are exposed both to [^3H]ketanserine (a substance which is known for its affinity to the receptor) and also to the test compound. The decrease in the affinity of [^3H]ketanserine to the receptor is an indication of the affinity of the test substance to the 5-HT2A receptor.
5-HT2A receptors, sequence (P14842 whole entry): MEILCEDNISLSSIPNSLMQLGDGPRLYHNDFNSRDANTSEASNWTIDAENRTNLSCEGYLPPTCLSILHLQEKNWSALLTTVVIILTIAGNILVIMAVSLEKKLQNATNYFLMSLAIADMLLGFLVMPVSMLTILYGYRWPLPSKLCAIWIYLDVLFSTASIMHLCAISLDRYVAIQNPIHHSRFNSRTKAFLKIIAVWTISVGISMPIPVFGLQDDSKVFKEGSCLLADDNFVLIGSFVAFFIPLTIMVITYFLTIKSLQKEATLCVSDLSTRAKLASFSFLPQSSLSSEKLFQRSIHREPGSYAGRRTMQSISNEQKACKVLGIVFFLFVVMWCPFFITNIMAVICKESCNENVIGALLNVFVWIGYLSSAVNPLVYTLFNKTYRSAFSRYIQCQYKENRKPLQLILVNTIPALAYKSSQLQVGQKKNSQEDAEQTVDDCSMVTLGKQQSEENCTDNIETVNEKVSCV
For orientation: In a radioligand displacement assay an active substance lowers the binding of a labelled ligand.

[1] abbreviates: target not given, description names affinity to 5-HT2A receptors, read-out: IC50.

The structures appear in SMILES notation. Where two headings read alike, the source gives them in different places.

The values that follow come from patent publication US20060264419A1 (priority 2003, published 2006).

On to `CN(C)C1CCN(Cc2cnn(-c3ccc(-c4ccccc4)cc3)c2-c2ccccc2F)C1` (centres unmarked) [(167), {1-[1-Biphenyl-4-yl-5-(2-fluorophenyl)-1H-pyrazol-4-ylmethyl]-pyrrolidin-3-yl}dimethylamine], for which the IC50 under setting [1] is 230 nM. For `CN1CCC(N(C)Cc2cnn(-c3ccc(-c4ccccc4)cc3)c2-c2ccccc2F)C1` (centres unmarked) [(168), [1-Biphenyl-4-yl-5-(2-fluorophenyl)-1H-pyrazol-4-ylmethyl]-methyl-(1-methylpyrrolidin-3-yl)amine], the IC50 under setting [1] is 16 nM. As to `Cn1ccnc1CNCc1cnn(-c2ccc(-c3ccccc3)cc2)c1-c1ccccc1` [(169), (1-Biphenyl-4-yl-5-phenyl-1H-pyrazol-4-ylmethyl)-(1-methyl-1H-imidazol-2-ylmethyl)amine], the half-maximal inhibitory concentration (IC50) under setting [1] turned out to be 39 nM. Regarding `c1ccc(-c2ccc(-n3ncc(CNCc4ccncc4)c3-c3ccccc3)cc2)cc1` [(170), (1-Biphenyl-4-yl-5-phenyl-1H-pyrazol-4-ylmethyl)pyridin-4-ylmethylamine], the 50% inhibitory concentration (IC50) under setting [1] turned out to be 31 nM. For `Cn1cccc1CNCc1cnn(-c2ccc(-c3ccccc3)cc2)c1-c1ccccc1` [(171), (1-Biphenyl-4-yl-5-phenyl-1H-pyrazol-4-ylmethyl)-(1-methyl-1H-pyrrol-2-ylmethyl)amine], the IC50 under setting [1] was 26 nM. With `c1ccc(-c2ccc(-n3ncc(CNCc4ccccn4)c3-c3ccccc3)cc2)cc1` [(172), (1-Biphenyl-4-yl-5-phenyl-1H-pyrazol-4-ylmethyl)pyridin-2-ylmethylamine], under setting [1], the IC50 amounted to 23 nM. For the molecule `OCCc1cnn(-c2ccc(-c3ccccc3)cc2)c1-c1ccccc1F` [(173), 2-[1-Biphenyl-4-yl-5-(2-fluorophenyl)-1H-pyrazol-4-yl]-ethanol], under setting [1], the IC50 is 470 nM.

Take `Fc1ccc(-c2ccc(-n3ncc(CNc4ccon4)c3-c3ccccc3F)cn2)cc1` [(174), {5-(2-Fluorophenyl)-1-[6-(4-fluorophenyl)pyridin-3-yl]-1H-pyrazol-4-ylmethyl}isoxazol-3-ylamine]: under setting [1], the IC50 was 320 nM. As for `CC(C)(C)OC(=O)N1CCC(NCc2cnn(-c3ccc(-c4ccccc4)cc3)c2-c2ccccc2F)C1` (centres unmarked) [(176), tert-Butyl 3-{[1-biphenyl-4-yl-5-(2-fluorophenyl)-1H-pyrazol-4-ylmethyl]amino}pyrrolidine-1-carboxylate], under setting [1], the half-maximal inhibitory concentration (IC50) stood at 460 nM.

Turning to `Nc1ccncc1NCc1cnn(-c2ccc(-c3ccccc3)cc2)c1-c1ccccc1F` [(177), N^3-[1-Biphenyl-4-yl-5-(2-fluorophenyl)-1H-pyrazol-4-ylmethyl]-pyridine-3,4-diamine], under setting [1], the IC50 came to 180 nM. For the molecule `Cc1cnc(NCc2cnn(-c3ccc(-c4ccccc4)cc3)c2-c2ccccc2F)s1` [(178), [1-Biphenyl-4-yl-5-(2-fluorophenyl)-1H-pyrazol-4-ylmethyl]-(5-methylthiazol-2-yl)amine], the IC50 under setting [1] is 370 nM.

Take `CC(C)(C)OC(=O)CNCc1cnn(-c2ccc(-c3ccccc3)cc2)c1-c1cccnc1` [(179), tert-Butyl [(1-biphenyl-4-yl-5-pyridin-3-yl-1H-pyrazol-4-ylmethyl)amino]acetate]: the IC50 under setting [1] came out at 1000 nM. For the molecule `CN(CC(=O)OC(C)(C)C)Cc1cnn(-c2ccc(-c3ccccc3)cc2)c1-c1cccnc1` [(180), tert-Butyl [(1-biphenyl-4-yl-5-pyridin-3-yl-1H-pyrazol-4-ylmethyl)methylamino]acetate], the 50% inhibitory concentration (IC50) under setting [1] is 920 nM. Same read-out and setting: next, `Cc1cc(CNCc2cnn(-c3ccc(-c4ccccc4)cc3)c2-c2ccccc2)no1` [(181), (1-Biphenyl-4-yl-5-phenyl-1H-pyrazol-4-ylmethyl)-(5-methylisoxazol-3-ylmethyl)amine]: 240 nM; `CCOC(=O)N1CCN(Cc2cnn(-c3ccc(-c4ccccc4)cc3)c2-c2ccccc2F)CC1` [(182), Ethyl 4-[1-biphenyl-4-yl-5-(2-fluorophenyl)-1H-pyrazol-4-ylmethyl]piperazine-1-carboxylate]: 58 nM. As to `COC(=O)CCNCc1cnn(-c2ccc(-c3ccccc3)cc2)c1-c1cccnc1` [(183), Methyl 3-[(1-biphenyl-4-yl-5-pyridin-3-yl-1H-pyrazol-4-ylmethyl)amino]propionate], the IC50 under setting [1] is 830 nM. With `Fc1ccccc1-c1c(CN2CCN(Cc3ccncc3)CC2)cnn1-c1ccc(-c2ccccc2)cc1` [(184), 1-[1-Biphenyl-4-yl-5-(2-fluorophenyl)-1H-pyrazol-4-ylmethyl]-4-pyridin-4-ylmethylpiperazine], under setting [1], the IC50 came to 75 nM. On the same count and under the same terms, under `Fc1ccccc1-c1c(CCN2CCOCC2)cnn1-c1ccc(-c2ccccc2)cc1` [(185), 4-{2-[1-Biphenyl-4-yl-5-(2-fluorophenyl)-1H-pyrazol-4-yl]ethyl}morpholine] stands 40 nM; under `Cc1nn(C)c(C)c1NCc1cnn(-c2ccc(-c3ccccc3)cc2)c1-c1ccccc1F` [(187), [1-Biphenyl-4-yl-5-(2-fluorophenyl)-1H-pyrazol-4-ylmethyl]-(1,3,5-trimethyl-1H-pyrazol-4-yl)amine], 590 nM; under `NCCc1cnn(-c2ccc(-c3ccccc3)cc2)c1-c1ccccc1F` [(188), 2-[1-Biphenyl-4-yl-5-(2-fluorophenyl)-1H-pyrazol-4-yl]-ethylamine], 1400 nM. Take `Fc1ccccc1-c1c(CCl)cnn1-c1ccc(-c2ccccc2)cc1` [(189), 1-Biphenyl-4-yl-4-chloromethyl-5-(2-fluorophenyl)-1H-pyrazole]: the IC50 under setting [1] amounted to 1100 nM. `CC(C)(C)OC(=O)N1CC2C(C1)C2NCc1cnn(-c2ccc(-c3ccccc3)cc2)c1-c1ccccc1F` (centres unmarked) [(190), tert-Butyl 6-{[1-biphenyl-4-yl-5-(2-fluorophenyl)-1H-pyrazol-4-ylmethyl]amino}-3-azabicyclo[3.1.0]hexane-3-carboxylate]: the half-inhibitory concentration (IC50) under setting [1] is 520 nM. In the case of `O=c1ccccn1Cc1cnn(-c2ccc(-c3ccccc3)cc2)c1-c1ccccc1F` [(191), 1-[1-Biphenyl-4-yl-5-(2-fluorophenyl)-1H-pyrazol-4-ylmethyl]-1H-pyridin-2-one], under setting [1], the half-maximal inhibitory concentration (IC50) came out at 200 nM. On the same count and under the same terms, under `Fc1ccccc1-c1c(CNC2C3CNCC32)cnn1-c1ccc(-c2ccccc2)cc1` (centres unmarked) [(192), (3-Azabicyclo[3.1.0]hex-6-yl)-[1-biphenyl-4-yl-5-(2-fluorophenyl)-1H-pyrazol-4-ylmethyl]amine] stands 320 nM. In the case of `O=C(c1cnn(-c2ccc(-c3ccccc3)cc2)c1-c1ccccc1F)N1CCOCC1` [(193), 1-[1-Biphenyl-4-yl-5-(2-fluorophenyl)-1H-pyrazol-4-yl]-1-morpholin-4-ylmethanone], the IC50 under setting [1] came to 360 nM.

With `Nc1ccc(NCc2cnn(-c3ccc(-c4ccc(F)cc4)nc3)c2-c2ccccc2F)cn1` [(194), N^5-{5-(2-Fluorophenyl)-1-[6-(4-fluorophenyl)pyridin-3-yl]-1H-pyrazol-4-ylmethyl}pyridine-2,5-diamine], the IC50 under setting [1] amounted to 590 nM. Turning to `Fc1ccccc1-c1c(CN2CCC(Cc3cccnc3)CC2)cnn1-c1ccc(-c2ccccc2)cc1` [(195), 3-{1-[1-Biphenyl-4-yl-5-(2-fluorophenyl)-1H-pyrazol-4-ylmethyl]piperidin-4-ylmethyl}pyridine], the IC50 under setting [1] is 66 nM. Turning to `Fc1ccc(-c2ccc(-n3ncc(CNc4cnccn4)c3-c3ccccc3F)cn2)cc1` [(196), {5-(2-Fluorophenyl)-1-[6-(4-fluorophenyl)pyridin-3-yl]-1H-pyrazol-4-ylmethyl}pyrazin-2-ylamine], the IC50 under setting [1] is 1200 nM. Consider `Nc1ncc(NCc2cnn(-c3ccc(-c4ccc(F)cc4)nc3)c2-c2ccccc2F)cn1` [(197)], for which, under setting [1], the IC50 came out at 1300 nM.

As for `CN1CCN(Cc2cnn(-c3ccc(-c4ccccc4)nc3)c2-c2cccnc2)CC1` [(198), 1-Methyl-4-[1-(6-phenylpyridin-3-yl)-5-pyridin-3-yl-1H-pyrazol-4-ylmethyl]piperazine], under setting [1], the IC50 turned out to be 140 nM.

Turning to `Fc1ccccc1-c1c(C=CCN2CCOCC2)cnn1-c1ccc(-c2ccccc2)cc1` [Example 908, 4-{3-[1-Biphenyl-4-yl-5-(2-fluorophenyl)-1H-pyrazol-4-yl]allyl}morpholine], for the setting “read-out: HT2A IC50”, the IC50 was 17 nM. Take `CN1CCN(Cc2cnn(-c3ccc(-c4ccc(F)cc4)cc3)c2-c2cccc(F)c2)CC1` [Example 911, 1-[1-(4′-Fluorobiphenyl-4-yl)-5-(3-fluoro-phenyl)-1H-pyrazol-4-ylmethyl]-4-methyl-piperazine]: the IC50 (read-out: HT2A IC50) was found to be 19 nM. Take `Fc1ccccc1-c1c(CCCN2CCOCC2)cnn1-c1ccc(-c2ccccc2)cc1` [Example 917, 4-{3-[1-Biphenyl-4-yl-5-(2-fluoro-phenyl)-1H-pyrazol-4-yl]propyl}morpholine]: where the note is “read-out: HT2A IC50”, the IC50 came to 23 nM.

As for `CN(C)C1CCN(Cc2cnn(-c3ccc(-c4ccccc4)cc3)c2-c2ccccc2F)C1` (centres unmarked) [Example 936, {1-[1-Biphenyl-4-yl-5-(2-fluoro-phenyl)-1H-pyrazol-4-ylmethyl]pyrrolidin-3-yl}dimethyl-amine], for the setting “read-out: HT2A IC50”, the IC50 amounted to 35 nM.

Regarding `CCN1CCN(Cc2cnn(-c3ccc(-c4ccc(F)cc4)cc3)c2-c2cccc(OC)c2)CC1` [Example 938, 1-Ethyl-4-[1-(4′-fluorobiphenyl-4-yl)-5-(3-methoxyphenyl)-1H-pyrazol-4-ylmethyl]-piperazine], for the setting “read-out: HT2A IC50”, the IC50 was 35 nM.

Turning to `Fc1ccccc1-c1c(CN2CC=CC2)cnn1-c1ccc(-c2ccccc2)cc1` [Example 939, 1-Biphenyl-4-yl-4-(2,5-dihydropyrrol-1-yl-methyl)-5-(2-fluorophenyl)-1H-pyrazole], where the note is “read-out: HT2A IC50”, the IC50 is 36 nM. Regarding `Cc1cccc(-c2c(CN3CCN(C)CC3)cnn2-c2ccc(-c3ccc(F)cc3)cc2)c1` [Example 940, 1-[1-(4′-Fluorobiphenyl-4-yl)-5-m-tolyl-1H-pyrazol-4-ylmethyl]-4-methylpiperazine], under “read-out: HT2A IC50”, the IC50 stood at 37 nM. As to `Fc1ccccc1-c1c(CN2CCCCCC2)cnn1-c1ccc(-c2ccccc2)cc1` [Example 948, 1-[1-Biphenyl-4-yl-5-(2-fluorophenyl)-1H-pyrazol-4-ylmethyl]azepan], under “read-out: HT2A IC50”, the IC50 came out at 48 nM.

As a reminder, the IC50 is the point on the concentration scale where inhibition reaches its midpoint.
